Assay results: patent US20230134958A1, “NEW MEDICAL TREATMENT” (Umecrine Cognition AB, priority 2021, published 2023)

System: cirrhotic patients defined as Child-Pugh class A and B with manifestation of CHE
Assay: Continuous Reaction Time (CRT) test, clinical Phase II study part D (EudraCT 2016-003651-30), 21 days extended treatment
Format: in vivo, human
Protocol: Protocol EudraCT 2016-003651-30 was a randomized, double-blinded, placebo-controlled study consisting of four parts, where part D (partly) of the study is relevant to the herein disclosed and claimed invention. The aim of the study was to assess the potential efficacy (Part D) of the compound golexanolone in patients with cirrhosis. The study was performed at sites in Sweden, Denmark, Ukraine, Russia, Hungary and Poland.
Extended treatment (21 consecutive days) in cirrhotic patients defined as Child-Pugh class A and B with manifestation of CHE, was performed.
An objective of study part D (phase IIa, extended treatment) was to assess preliminary efficacy of treatment with the compound golexanolone on cognitive function, as measured by the Continuous Reaction time (CRT) test.
In order to be eligible for the study, patients required evidence of cognitive impairment defined as a CRT index <1.9 at screening. CRT was re-assessed at baseline, prior to dosing but was not required to be abnormal at baseline.
Exclusion criteria included uncontrolled infection, active gastrointestinal bleeding, a history of bleeding requiring transfusion, transjugular intrahepatic portosystemic shunt placement within the past 90 days, hepatorenal syndrome, uncontrolled ascites, current malignancy, evidence of overt HE at screening or within 7 days of screening, use of psychoactive drugs, or any other psychiatric or medical comorbidity judged by the Investigator to preclude safe participation and/or confound the interpretation of study results.
Alcohol consumption was not allowed within two days prior to screening or for 24 hours prior to all study visits. Moreover, subjects were required to have a negative alcohol breath test at screening and subsequent study visits, including Part D study days 10 and 21 at which cognitive function was measured.
The Investigational Medicinal Product (IMP) is self-administered by the patient at home, except for the study days of visiting the clinic (Days 1, 10 and 21), when the IMP is administered under surveillance. Assistance of a dedicated care-giver or family members/friends is mandatory during the extended treatment period. Intake of study medication, changes in concomitant medications and medical events between visits are registered in a diary on a daily basis by the patient/care-giver and a care-giver diary is completed. Efficacy parameters are evaluated. If assessed as required for practical reasons, a patient can be confined to the research clinic from the evening before dosing on Day 21. A follow-up visit is performed 5-10 days after (last) IMP administration. Change in CRT index from baseline (day 1) to 10 and 21 days respectively after start of treatment, as
compared to placebo, is evaluated.
The Investigational Medical Product (clinical formulation) is supplied as a lipid semi-solid filled in a gelatine capsule for oral administration. For the present study, each capsule contains 10 mg golexanolone. The excipient is a mixture of mono -and diglycerides of capric/caprylic glycerides (Imwitor® 742), which is of pharmacopoeia quality.
The Investigational Medical Product golexanolone is administered every twelve (12) hours (i. e. twice daily) for 21 consecutive days.
10 mg golexanolone BID (i.e. 20 mg per day) in combination with Standard of Care therapy; or 40 mg golexanolone BID (i.e. 80 mg per day) in combination with Standard of Care therapy; or 80 mg golexanolone BID (i.e. 160 mg per day) in combination with Standard of Care therapy; or placebo BID in combination with Standard of Care therapy.
Standard of Care therapy may be any one of an oral antioxidant, fluvoxamine, fluoxetine, ondansetron, colchicine, UDCA (ursodeoxycholic acid), OCA (obeticholic acid), ciclosporin, nalmefene, modafinil, rituximab, lactulose, rifaximin, propranolol, furosemide, methotrexate; or any combination thereof.

In the case of C#C[C@]1(O)CC[C@@]2(C)C(CC[C@@H]3[C@@H]2CC[C@]2(C)/C(=N/O)CC[C@@H]32)C1 (stereo partly drawn) [Golexanolone, 3α-ethynyl-3β-hydroxyandrostan-17-one oxime], the “Change in CRT compared to baseline” value (36 patients with abnormal CRT (<1.9) at baseline, 10 mg BID oral with Standard of Care, Day 10, N = 8) is reported as 0.3504, the “Change in CRT compared to baseline” value (36 patients with abnormal CRT (<1.9) at baseline, 10 mg BID oral with Standard of Care, Day 21, N = 8) is reported as 0.4166 and the “Change in CRT compared to baseline” value (36 patients with abnormal CRT (<1.9) at baseline, 40 mg BID oral with Standard of Care, Day 10, N = 10) is reported as 0.3035. For the same compound, the “Change in CRT compared to baseline” value (36 patients with abnormal CRT (<1.9) at baseline, 40 mg BID oral with Standard of Care, Day 21, N = 10) was 0.4276, the “Change in CRT compared to baseline” value (36 patients with abnormal CRT (<1.9) at baseline, 80 mg BID oral with Standard of Care, Day 10, N = 9) was 0.5109 and the “Change in CRT compared to baseline” value (36 patients with abnormal CRT (<1.9) at baseline, 80 mg BID oral with Standard of Care, Day 21, N = 9) was 0.5219. For the same compound, the “Change in CRT compared to baseline” value (all 45 patients with abnormal (<1.9) or normal CRT at baseline, 10 mg BID oral with Standard of Care, Day 10, N = 10) was 0.2762, the “Change in CRT compared to baseline” value (all 45 patients with abnormal (<1.9) or normal CRT at baseline, 10 mg BID oral with Standard of Care, Day 21, N = 10) was 0.2792 and the “Change in CRT compared to baseline” value (all 45 patients with abnormal (<1.9) or normal CRT at baseline, 40 mg BID oral with Standard of Care, Day 10, N = 10) was 0.3035. For the same compound, the “Change in CRT compared to baseline” value (all 45 patients with abnormal (<1.9) or normal CRT at baseline, 40 mg BID oral with Standard of Care, Day 21, N = 10) was 0.4276, the “Change in CRT compared to baseline” value (all 45 patients with abnormal (<1.9) or normal CRT at baseline, 80 mg BID oral with Standard of Care, Day 10, N = 13) was 0.4593 and the “Change in CRT compared to baseline” value (all 45 patients with abnormal (<1.9) or normal CRT at baseline, 80 mg BID oral with Standard of Care, Day 21, N = 13) was 0.3505.
